Test results as given in patent US8895032B2, “Dendritic nano-antioxidants” (Central Michigan University, priority 2009, dated 2014).

Key:
DPPH radical assay = test: DPPH radical assay
Description: The DPPH assay was one of three electron transfer (ET) assays used to determine the antioxidant potential of compound 1 (described in Example 6) in comparison to its monomeric counterpart (syringaldehyde) as well as popular antioxidants. In an ET assay, an antioxidant donates electron(s) to a molecular probe, thus reducing it. From the assay, thermodynamic conversion of antioxidant to antioxidant radical (oxidation) is measured during a fixed time period.
The reduction of DPPH radical was determined for ascorbic acid, Trolox, syringaldehyde, and the compound 1 described in Example 6 as previously reported (Brand-Williams, et al. Lebensm.-Wiss U.-Technol. 1995, 28, 25-30, incorporated herein by reference in its entirety). In the DPPH assay, DPPH• radical was reduced by the antioxidant in methanol (Brand-Williams, et al. Lebensm.-Wiss U.-Technol. 1995, 28, 25-30, incorporated herein by reference in its entirety). […] The DPPH reagent was made in methanol. Antioxidant sample (10 μL) was added to 1.0 mL of reagent and the absorbance was monitored at 515 nm until a plateau was reached. Antioxidant concentrations were 50 μM syringaldehyde, 12.5 μM Trolox and ascorbic acid, and 5 μM compound 1. All samples were made in methanol and run in triplicates at room temperature.
The DPPH• scavenging capacity of each antioxidant was evaluated from the plot of the percentage DPPH• remaining when the kinetics reached a steady state as a function of the molar ratios of antioxidant to DPPH•. […] Using the curve, EC50 (the amount of antioxidant necessary to decrease the initial DPPH• concentration by 50%), antiradical power (1/EC50, ability to reduce the DPPH•), reaction stoichiometry (EC50×2, the concentration of antioxidant required to reduce 100% of DPPH• radical), and the number of reduced DPPH• per antioxidant molecule (1/stoichiometry) for each antioxidant were calculated as previously described (Brand-Williams, et al. Lebensm.-Wiss U.-Technol. 1995, 28, 25-30, incorporated herein by reference in its entirety) and are depicted in Table 1.
Antioxidant capacity of the compounds was assessed by the DPPH assay (Brand-Williams, et al. Lebensm. Wiss. Technol. 1995, 28, 25, incorporated herein by reference in its entirety). […] In FIG. 22, control with methanol is (X, dashed); compound 1 is (□), compound 2 is (•), compound 3 is (◯), and Trolox (Δ). All antioxidant concentrations were 5 μM.
The free-radical scavenging ability of the antioxidants was evaluated by the DPPH assay, as described above in Example 7.

[1] = ABTS radical cation decolorization assay; type: biochemical
From the text: We have tested AO activity of G1 (13) using ABTS as a radical source using a previously reported spectroscopic assay. The AO activity of the G1 (13) was compared to those of syringaldehyde, gallic acid, and vitamin C. If the phenolic OH group is the radical scavenging site, the expected AO activity of the G1 (13) should be 4 fold higher than that of syringaldehyde and 1.3 fold higher than that of gallic acid (which has three phenolic OH groups).
ABTS radical cation decolorization assay was used as previously described (Ozgen, et al. J. Agric. Food Chem. 2006, 54, 1151-1157, incorporated herein by reference in its entirety). Like the DPPH assay, this was also a decolorization assay and measured absorbance decrease at 734 nm as the ABTS radical (ABTS•+) is quenched by the antioxidant. The solvent used for the assay was ethanol. ABTS reagent was added to 1.0 mL solvent in a cuvet to bring the absorbance to 0.7. A 10 μL sample of antioxidant was then added, mixed, and the absorbance monitored at 734 nm for 6 min. Antioxidant concentrations were 14.4 μM Trolox, 11.4 μM ascorbic acid, 15.4 μM syringaldehyde, and 3 μM compound 1. The % decrease in absorbance at 6 min was plotted against antioxidant concentrations. The gradient of the line obtained by linear regression for a given antioxidant was divided by that obtained for Trolox to yield Trolox equivalent antioxidant (TEAC) values. All samples were made in ethanol and run in triplicates and at room temperature.

[2] = FRAP assay (reduction of Fe(III) to Fe(II)); type: biochemical; design: Slope of ΔA593 versus concentration: unit not given here; details: for Slope of ΔA593 versus concentration: 37° C.
Description: The FRAP assay was performed as previously described (Pulido, et al. J. Agric. Food Chem. 2000, 48, 3396-3402, incorporated herein by reference in its entirety). In the FRAP assay, ferric was reduced by the antioxidant to ferrous via electron transfer (Benzie et al., Anal. Biochem. 1996, 239, 70-76, incorporated herein by reference in its entirety). This assay measured the redox potential of an antioxidant which is used as an estimate of antioxidant efficiency and expressed as a FRAP value. […] The compound 1 as well as the other antioxidants was dissolved in methanol. […] Reaction kinetics of the compound 1 and other antioxidants were obtained by plotting the change in slopes at various times and are shown in FIG. 18. […] This time-dependent increase in absorbance was previously reported (Pulido, et al. J. Agric. Food Chem. 2000, 48, 3396-3402, incorporated herein by reference in its entirety) and was especially significant with polyphenolic compounds. […] However, the FRAP value increased with time, reaching 2.5 in 60 min. […] J. Agric. Food Chem. 2000, 48, 3396-3402, incorporated herein by reference in its entirety). […] EC1 values, and therefore ferric reducing ability, were lower at longer reaction times as expected from the kinetic behavior of the antioxidants (Pulido, et al. J. Agric. Food Chem. 2000, 48, 3396-3402, incorporated herein by reference in its entirety).

[3] = Brand-Williams et al.; cited from earlier work
Human LDL = test: Protection of LDL from AAPH oxidation (agarose gel electrophoresis); type: biochemical; details: 1-30 μM, 20 mM AAPH, 21 h, 37° C.
From the text: The antioxidant activity of compounds 1, 2, and 3 towards biomolecules was examined by studying their ability to protect LDL, fatty acid, and DNA from free radicals. For LDL, AAPH was used to induce free radical damage. AAPH was used instead of copper (Cu^2) ion for LDL oxidation so that the free radical scavenging activity of the antioxidants could be measured without any pro-oxidant interference caused by metal ions (Salah, N. et al. Arch. Biochem. Biophys. 1995, 322, 339, incorporated herein by reference in its entirety). All solutions were made in ultra-pure water.
Protection of LDL from AAPH free radicals by the antioxidant decreased the anodic shift in a dose-dependent manner (FIG. 23). […] The increased hydrophobicity of compound 3 may be partly responsible for its improved LDL protection over compound 2.
The antioxidant activity of the antioxidants towards biomolecules was examined by studying their ability to protect LDL, lysozyme, and DNA from free radicals. For LDL, AAPH was used to induce free radical damage. AAPH was used instead of Cu^2+ for LDL oxidation so that the free radical scavenging activity of the antioxidants could be measured without any pro-oxidant interference caused by metal ions. The oxidation of human low-density lipoprotein was used as a model for evaluating the ability of the G1 dendrimers as chain-breaking antioxidants for lipid. Oxidation of LDL leads to changes in both the lipid and the protein moieties of the lipoprotein particle. Lipid peroxidation in LDL has been evaluated by a variety of methods. Due to the complexity of events that occur in lipoprotein oxidation, the electrophoretic migration pattern of oxidized LDL is one of the best methods to evaluate the extent of lipoprotein oxidation. LDL was incubated with 20 mM AAPH and increasing concentrations of the G1 dendrimers (0-37 μM in PBS) for 21 h at 37° C. The mixture was then subjected to agarose gel electrophoresis using the Ciba Corning Clinical Electrophoresis System. The agarose gel was stained with Fat Red 7B. In FIG. 30A (top), lane 1 is native LDL, and lanes 2-8 are AAPH-oxidized LDL with 0, 37, 18.5, 9, 4.5, 2 and 1 μM compound 4, respectively. In FIG. 30B (bottom), lane 1 is native LDL, and lanes 2-8 are AAPH-oxidized LDL with 0, 37, 18.5, 9, 4.5, 2 and 1 μM quercetin or Trolox, respectively.

plasmid DNA pBR 322 = test: Protection of plasmid DNA from AAPH damage (agarose electrophoresis); type: biochemical; details: 10 mM AAPH, 37° C., 4 h
Description: The effectiveness of the three compounds to protect DNA from AAPH damage was also determined. The plasmid DNA pBR 322 was incubated with AAPH (final concentration 10 mM) at 37° C. for 4 h with or without antioxidants (final concentrations, 0.35-45 μM), after which the samples were subjected to agarose electrophoresis (Sakihama, Y., et al. Toxicology 2002, 177, 67, incorporated herein by reference in its entirety). […] In the absence of AAPH, pBR 322 was mostly in its supercoiled (S) form (small amount of open circular, O, form was also visible, lane 1 FIG. 25). After reaction with AAPH, the DNA was transformed almost entirely into its open circular form (lane 2, FIG. 25). […] No protection was obtained for both compound 1 and quercetin below 5 μM (lanes 7-10, FIG. 25). […] Compound 3 as well as Trolox were ineffective at all concentrations used in the experiment (0.35-45 μM).
Protection of DNA from free radical damage by the antioxidant dendrimers (compounds 4, 5, and 1) was also evaluated. Plasmid DNA (pBR 322) samples, were incubated with AAPH (final concentration 10 mM) at 37° C. for 4 h with antioxidants (final concentrations, 0.35-45 μM) and subjected to agarose electrophoresis. […] The native DNA was mostly in its supercoiled (S) form (small amount of open circular, O, form was also visible, lane 1, FIG. 31). In the presence of AAPH, the DNA was transformed almost entirely into its O form (lane 2, FIG. 31). […] Negligible DNA protection was afforded by all three dendrimers at ≦2.5 μM (lanes 7-10, FIG. 31). Under similar conditions, Trolox as well as the starting materials for dendrimer synthesis were ineffective at all concentrations.

pBR 322 DNA with Cu2+ = test: Pro-oxidant effect: oxidation of DNA with copper (II) ion; details: 10 μM Cu2+, 37° C., 1 h
Description: The pro-oxidant effect of compounds 1, 2, and 3 was examined by oxidation of DNA with copper (II) ion. pBR 322 was incubated with 10 μM Cu^2+ at 37° C. for 1 h in the presence of compound 1, 2, or 3 (final concentrations between 0.35 and 45 μM). […] Lane 1 is native DNA, and lanes 2-10 are Cu^2+-oxidized DNA with 0, 45, 23, 11, 5, 3, 1.5, 0.7, and 0.35 μM antioxidant, respectively.
This was performed by co-incubation of DNA (pBR 322), copper (II) ion and antioxidant. […] This ultimately forms DNA-Cu(I)OOH, initiating a free radical cascade by which DNA damage occurs. pBR 322 was incubated with 10 μM Cu^2+ in the presence of antioxidants (0-45 μM) at 37° C. for 1 h and subjected to agarose electrophoresis. […] In FIG. 32, lane 1 is native DNA, and lanes 2-10 are Cu^2+ oxidized DNA with 0, 45, 23, 11, 5, 3, 1.5, 0.7, and 0.35 μM antioxidant, respectively. […] However, it should be noted that physiological concentrations of copper are less than 10-20 μM in plasma and approximately […] for the cation in cells.

Q: What does the source list for `O=C1O[C@H]([C@@H](O)CO)C(O)=C1O` [Ascorbic acid, ascorbic acid]?
A: # of DDPH• reduced per antioxidant molecule (1/stoichiometry) (DPPH radical assay): 1.8; Antioxidant Capacity Relative to Trolox, DPPH (DPPH radical assay): 1; Antioxidant Capacity Relative to Trolox, ABTS [1]: 0.90; time to reach a plateau of ABTS•+ absorbance suppression ([1]; 14.4 μM Trolox, 11.4 μM ascorbic acid): one; IC50 ([1]; final concentration in the cuvet, read-out: concentration at which 50% inhibition of ABTS•+ was observed): ~13 µM; Slope of % decrease in absorbance at 6 min versus antioxidant concentration ([1]; linear regression, concentration in μM): 3.6; TEAC ([1]; slope divided by that of Trolox, % decrease in A734 at 6 min, ethanol): 0.9; Antioxidant Capacity Relative to Trolox, FRAP 5 min ([2]; 5 min): 0.91; EC1 (concentration with ferric-TPTZ reducing ability equivalent to 1 mM FeSO4.7H2O) ([2]; 5 min): 505 µM; FRAP value relative to Fe(II) ([2]; 5 min, listed as Ascorbic Acid): 2.0; FRAP value relative to Fe(II) ([2]; 5 min, listed as ascorbic acid): ~2; FRAP value relative to Fe(II) ([2]; 15 min): 2.1; FRAP value relative to Fe(II) ([2]; 30 min): 2.3; Antioxidant Capacity Relative to Trolox, FRAP 60 min ([2]; 60 min): 1.1; EC1 (concentration with ferric-TPTZ reducing ability equivalent to 1 mM FeSO4.7H2O) ([2]; 60 min): 395 µM; FRAP value relative to Fe(II) ([2]; 60 min): 2.5; Slope of ΔA593 versus concentration ([2]; Reaction time 5 min): 0.0238; Slope of ΔA593 versus concentration ([2]; Reaction time 15 min): 0.0255; Slope of ΔA593 versus concentration ([2]; Reaction time 30 min): 0.0272; Slope of ΔA593 versus concentration ([2]; Reaction time 60 min): 0.0305; ARP, previously reported value [3]: 3.70; Stoichiometry, previously reported value [3]: 0.54; number of reduced DPPH• per antioxidant molecule, previously reported value [3]: 1.85

Q: With `O=c1c(O)c(-c2ccc(O)c(O)c2)oc2cc(O)cc(O)c12` [quercetin] as the molecule, how does the IC50 (DPPH radical assay; read-out: DPPH IC50 at 120 min, Example 15) read?
A: 10 µM

Q: What about the “protection of LDL at all antioxidant concentrations” value (Human LDL) of the same molecule?
A: ineffective

Q: And the DNA protection (plasmid DNA pBR 322; 5 μM antioxidant)?
A: not

Q: What about the DNA protection (plasmid DNA pBR 322; below 5 μM antioxidant) of the same molecule?
A: No protection

Q: And the “pro-oxidant DNA damage” value (pBR 322 DNA with Cu2+; 11-45 μM antioxidant)?
A: DNA damage was clearly observed

Q: And the pro-oxidant effect (pBR 322 DNA with Cu2+; between 3 and 5 μM antioxidant)?
A: more pronounced pro-oxidant effect than compound 1
